According to ChEMBL document CHEMBL2177079, “Free-Wilson and structural approaches to co-optimizing human and rodent isoform potency for 11β-hydroxysteroid dehydrogenase type 1 (11β-HSD1) inhibitors” (J Med Chem, 2012):
Blank lines part the entries; values can stand above or below the compound they belong to. Active and inactive are the calls of the source. The calls are words filed in the database; no cut-off is given here.

Experiments:
Rattus norvegicus [1] = assay: Inhibition of 11beta-HSD1 in po dosed Han Wistar rat epididymal adipose tissue assessed as conversion of [3H]cortisone to [3H]cortisol; assay type: functional, organism-based
Mus musculus [2] = assay: Inhibition of 11beta-HSD1 in po dosed C57 mouse epididymal adipose tissue assessed as conversion of [3H]cortisone to [3H]cortisol; assay type: functional, organism-based
[3] = Fraction unbound in human plasma; assay type: ADME, cell-free
[4] = Intrinsic clearance in human hepatocytes measured per 10^6 cells; assay type: ADME, cell-based, Hepatocyte; conditions: read-out: CLH
[5] = Intrinsic clearance in female beagle dog hepatocytes measured per 10^6 cells; assay type: ADME, cell-based, Canis lupus familiaris, Hepatocyte; conditions: read-out: CLH
[6] = Intrinsic clearance in male beagle dog hepatocytes measured per 10^6 cells; assay type: ADME, cell-based, Canis lupus familiaris, Hepatocyte; conditions: read-out: CLH
[7] = Intrinsic clearance in mouse hepatocytes measured per 10^6 cells; assay type: ADME, cell-based, Hepatocyte; conditions: read-out: CLH
[8] = Intrinsic clearance in Han Wistar rat hepatocytes measured per 10^6 cells; assay type: ADME, cell-based, Hepatocyte; conditions: read-out: CLH
[9] = Fraction unbound in female beagle dog plasma; assay type: ADME, cell-free, Canis lupus familiaris
[10] = Fraction unbound in Han Wistar rat plasma; assay type: ADME, cell-free
[11] = Fraction unbound in male beagle dog plasma; assay type: ADME, cell-free, Canis lupus familiaris
[12] = Oral bioavailability in female beagle dog at 1.2 umol/kg; assay type: ADME, organism-based, Canis lupus familiaris; conditions: in vivo
[13] = Fraction unbound in mouse plasma; assay type: ADME, cell-free
[14] = Oral bioavailability in male beagle dog at 1.2 umol/kg; assay type: ADME, organism-based, Canis lupus familiaris; conditions: in vivo
[15] = Oral bioavailability in Han Wistar rat at 11.7 umol/kg; assay type: ADME, organism-based; conditions: in vivo
[16] = AUC in female beagle dog at 1.2 umol/kg, po; assay type: ADME, organism-based, Canis lupus familiaris; conditions: plasma
[17] = Oral bioavailability in mouse at 11.7 umol/kg; assay type: ADME, organism-based; conditions: in vivo
[18] = AUC in Han Wistar rat at 11.7 umol/kg, po; assay type: ADME, organism-based; conditions: plasma
[19] = AUC in male beagle dog at 1.2 umol/kg, po; assay type: ADME, organism-based, Canis lupus familiaris; conditions: plasma
[20] = Volume of distribution at steady state in female beagle dog at 1 umol/kg, iv; assay type: ADME, organism-based, Canis lupus familiaris; conditions: in vivo, read-out: Vdss
[21] = AUC in mouse at 11.7 umol/kg, po; assay type: ADME, organism-based, Plasma; conditions: whole blood
[22] = Volume of distribution at steady state in male beagle dog at 1 umol/kg, iv; assay type: ADME, organism-based, Canis lupus familiaris; conditions: in vivo, read-out: Vdss
[23] = Volume of distribution at steady state in mouse at 4.7 umol/kg, iv; assay type: ADME, organism-based; conditions: in vivo, read-out: Vdss
[24] = Volume of distribution at steady state in Han Wistar rat at 4.7 umol/kg, iv; assay type: ADME, organism-based; conditions: in vivo, read-out: Vdss
[25] = Half life in female beagle dog at 1 umol/kg, iv; assay type: ADME, organism-based, Canis lupus familiaris; conditions: in vivo
[26] = Half life in Han Wistar rat at 4.7 umol/kg, iv; assay type: ADME, organism-based; conditions: in vivo
[27] = Half life in male beagle dog at 1 umol/kg, iv; assay type: ADME, organism-based, Canis lupus familiaris; conditions: in vivo
[28] = Half life in mouse at 4.7 umol/kg, iv; assay type: ADME, organism-based; conditions: in vivo
[29] = Clearance in male beagle dog at 1 umol/kg, iv; assay type: ADME, organism-based, Canis lupus familiaris; conditions: in vivo
[30] = Clearance in female beagle dog at 1 umol/kg, iv; assay type: ADME, organism-based, Canis lupus familiaris; conditions: in vivo
[31] = Clearance in Han Wistar rat at 4.7 umol/kg, iv; assay type: ADME, organism-based; conditions: in vivo
[32] = Clearance in mouse at 4.7 umol/kg, iv; assay type: ADME, organism-based; conditions: in vivo
[33] = biological target: T1, 17-beta-hydroxysteroid dehydrogenase type 3 (Homo sapiens) (UniProt P37058); assay: Inhibition of human 17beta-HSD3 at 10 uM by HPLC assay
T1 sequence (whole entry): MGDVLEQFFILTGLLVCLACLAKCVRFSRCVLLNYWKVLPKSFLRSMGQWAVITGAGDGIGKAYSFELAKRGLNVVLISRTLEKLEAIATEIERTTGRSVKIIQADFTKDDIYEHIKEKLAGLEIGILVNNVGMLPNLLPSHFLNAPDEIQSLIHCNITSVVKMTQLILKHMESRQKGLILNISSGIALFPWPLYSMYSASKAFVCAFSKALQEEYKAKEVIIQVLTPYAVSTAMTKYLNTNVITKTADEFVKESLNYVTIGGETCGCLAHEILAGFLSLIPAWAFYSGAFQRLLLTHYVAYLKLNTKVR

[34] = biological target: T2, 17-beta-hydroxysteroid dehydrogenase type 1 (Homo sapiens, UniProt P14061); assay: Inhibition of human 17beta-HSD1 by HPLC assay
T2 sequence (P14061 whole entry): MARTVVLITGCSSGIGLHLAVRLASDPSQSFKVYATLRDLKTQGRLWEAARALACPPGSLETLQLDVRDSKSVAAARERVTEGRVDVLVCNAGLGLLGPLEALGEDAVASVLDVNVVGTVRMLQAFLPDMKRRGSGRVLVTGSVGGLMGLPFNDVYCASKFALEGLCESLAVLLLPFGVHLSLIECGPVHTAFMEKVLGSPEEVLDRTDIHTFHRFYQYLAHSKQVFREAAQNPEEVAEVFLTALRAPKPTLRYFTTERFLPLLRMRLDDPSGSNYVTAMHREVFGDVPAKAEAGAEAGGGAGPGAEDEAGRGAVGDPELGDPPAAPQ

[35] = biological target: T3, 11-beta-hydroxysteroid dehydrogenase type 2 (Homo sapiens, UniProt P80365); assay: Inhibition of human 11beta-HSD2 by HTRF assay
T3 sequence (P80365 whole entry): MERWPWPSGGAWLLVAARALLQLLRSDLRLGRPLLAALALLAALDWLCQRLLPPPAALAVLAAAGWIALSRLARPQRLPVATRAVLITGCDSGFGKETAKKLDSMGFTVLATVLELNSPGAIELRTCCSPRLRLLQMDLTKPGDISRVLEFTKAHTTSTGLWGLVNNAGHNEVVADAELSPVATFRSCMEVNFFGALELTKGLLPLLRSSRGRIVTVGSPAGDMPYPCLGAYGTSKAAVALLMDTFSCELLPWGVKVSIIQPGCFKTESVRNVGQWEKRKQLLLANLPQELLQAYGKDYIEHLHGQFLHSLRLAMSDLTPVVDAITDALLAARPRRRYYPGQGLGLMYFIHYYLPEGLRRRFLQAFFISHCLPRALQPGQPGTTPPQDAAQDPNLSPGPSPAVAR

[36] = biological target: T4, 11-beta-hydroxysteroid dehydrogenase 1 (Homo sapiens, UniProt P28845); assay: Inhibition of human 11beta-HSD1 by HPLC assay
T4 sequence (P28845 whole entry): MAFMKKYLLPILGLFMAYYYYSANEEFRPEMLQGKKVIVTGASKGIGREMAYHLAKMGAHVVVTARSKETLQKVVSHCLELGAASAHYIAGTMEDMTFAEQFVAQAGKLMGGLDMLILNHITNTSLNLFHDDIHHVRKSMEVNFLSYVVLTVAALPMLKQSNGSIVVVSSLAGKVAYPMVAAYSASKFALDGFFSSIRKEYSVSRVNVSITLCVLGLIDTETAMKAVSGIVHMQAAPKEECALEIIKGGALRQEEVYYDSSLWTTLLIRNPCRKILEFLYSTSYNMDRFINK

[37] = Lipophilicity, log D at pH 7.4; assay type: physicochemical; conditions: buffer
[38] = (§1) Oral bioavailability in Han Wistar rat at 7.4 to 14.7 umol/kg; assay type: ADME, organism-based; conditions: Han Wistar, in vivo
[39] = biological target: 11-beta-hydroxysteroid dehydrogenase 1 (Mus musculus, UniProt P50172); assay: Inhibition of mouse 11beta-HSD1 by HTRF assay
Chain of 11-beta-hydroxysteroid dehydrogenase 1 (Mus musculus, UniProt P50172) (P50172 whole entry): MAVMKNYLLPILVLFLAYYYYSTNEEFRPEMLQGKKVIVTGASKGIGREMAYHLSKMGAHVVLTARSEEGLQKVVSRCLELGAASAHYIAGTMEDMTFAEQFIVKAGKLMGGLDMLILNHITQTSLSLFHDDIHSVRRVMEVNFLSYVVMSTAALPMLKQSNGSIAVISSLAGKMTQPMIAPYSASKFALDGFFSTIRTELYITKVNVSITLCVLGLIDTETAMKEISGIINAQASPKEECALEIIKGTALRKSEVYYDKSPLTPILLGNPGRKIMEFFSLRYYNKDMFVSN

[40] = biological target: T4, 11-beta-hydroxysteroid dehydrogenase 1; assay: Inhibition of human 11beta-HSD1 by HTRF assay
[41] = Volume of distribution at steady state in female beagle dog at 0.6 umol/kg, iv; assay type: ADME, organism-based, Canis lupus familiaris; conditions: in vivo, read-out: Vdss
[42] = Volume of distribution at steady state in male beagle dog at 0.6 umol/kg, iv; assay type: ADME, organism-based, Canis lupus familiaris; conditions: in vivo, read-out: Vdss
[43] = Half life in male beagle dog at 0.6 umol/kg, iv; assay type: ADME, organism-based, Canis lupus familiaris; conditions: in vivo
[44] = Half life in female beagle dog at 0.6 umol/kg, iv; assay type: ADME, organism-based, Canis lupus familiaris; conditions: in vivo
[45] = Clearance in female beagle dog at 0.6 umol/kg, iv; assay type: ADME, organism-based, Canis lupus familiaris; conditions: in vivo
[46] = Clearance in male beagle dog at 0.6 umol/kg, iv; assay type: ADME, organism-based, Canis lupus familiaris; conditions: in vivo
[47] = Oral bioavailability in Han Wistar rat at 7 umol/kg; assay type: ADME, organism-based; conditions: in vivo
[48] = AUC in Han Wistar rat at 7 umol/kg, po; assay type: ADME, organism-based, Plasma; conditions: whole blood
Mus musculus [49] = assay: Reduction in body weight in obese mouse at 50 mg/kg/day, po; assay type: functional, organism-based
Mus musculus [50] = assay: Reduction in fasting plasma glucose levels in obese mouse at 50 mg/kg/day, po; assay type: functional, organism-based
Mus musculus [51] = assay: Reduction in body weight in obese mouse at 300 mg/kg/day, po; assay type: functional, organism-based
Mus musculus [52] = assay: Reduction in fasting plasma glucose levels in obese mouse at 300 mg/kg/day, po; assay type: functional, organism-based
[53] = biological target: Corticosteroid 11-beta-dehydrogenase isozyme 1 (Mus musculus) (UniProt P50172); assay: Inhibition of 11beta-HSD1 in po dosed mouse liver assessed as target engagement; set-up: scale not given: the % may be the effect or the level left
Rattus norvegicus [54] = assay: as §1; assay type: ADME, organism-based; conditions: in vivo

- IC50 (Rattus norvegicus [1]): 87 nM
- IC50 (Mus musculus [2]): 30 nM
- fraction unbound [3]: 0.52
- hepatocyte CLint [4]: < 2 µL/min/1e6 cells
- hepatocyte CLint [5]: < 2 µL/min/1e6 cells
- hepatocyte CLint [6]: < 2 µL/min/1e6 cells
- hepatocyte CLint [7]: 3.6 µL/min/1e6 cells
- hepatocyte CLint [8]: < 2 µL/min/1e6 cells
- fraction unbound [9]: > 0.66
- fraction unbound [10]: 0.55
- fraction unbound [11]: > 0.66
- bioavailability [12]: 23%
- fraction unbound [13]: > 0.5
- bioavailability [14]: 34%
- bioavailability [15]: 100%
- AUC [16]: 0.16 µM·h
- bioavailability [17]: 57%
- AUC [18]: 10.4 µM·h
- AUC [19]: 0.38 µM·h
- Vd [20]: 1.6 L/kg
- AUC [21]: 2.7 µM·h
- Vd [22]: 1.1 L/kg
- Vd [23]: 1.1 L/kg
- Vd [24]: 0.9 L/kg
- half-life [25]: 42 min
- half-life [26]: 36 min
- half-life [27]: 48 min
- half-life [28]: 24 min
- clearance [29]: 19 mL/min/kg
- clearance [30]: 29 mL/min/kg
- clearance [31]: 32 mL/min/kg
- clearance [32]: 42 mL/min/kg
- inhibition [33]: 4%
- IC50 [34]: > 35000 nM
- IC50 [35]: > 30000 nM
- IC50 [36]: 14 nM
- logD [37]: 2.1
- bioavailability [38]: 100%
- IC50 [39]: 27 nM
- IC50 [40]: 28 nM
SMILES: O=C(N[C@H]1C2CC3CC1C[C@](O)(C3)C2)c1cnc(NC2CCOCC2)nc1C1CCC1

- Vd [41]: 0.6 L/kg
- Vd [42]: 0.7 L/kg
- half-life [43]: 36 min
- half-life [44]: 36 min
- clearance [45]: 14 mL/min/kg
- clearance [46]: 17 mL/min/kg
- bioavailability [47]: 61%
- AUC [48]: 5.6 µM·h
- IC50 (Mus musculus [2]): 50 nM
- fraction unbound [3]: 0.38
- hepatocyte CLint [4]: < 2 µL/min/1e6 cells
- hepatocyte CLint [5]: 6.7 µL/min/1e6 cells
- hepatocyte CLint [6]: 6.7 µL/min/1e6 cells
- hepatocyte CLint [7]: 9.1 µL/min/1e6 cells
- hepatocyte CLint [8]: < 2 µL/min/1e6 cells
- fraction unbound [9]: 0.38
- fraction unbound [10]: 0.35
- fraction unbound [11]: 0.38
- bioavailability [12]: 30%
- fraction unbound [13]: 0.3
- bioavailability [14]: 15%
- AUC [16]: 0.42 µM·h
- bioavailability [17]: 34%
- AUC [19]: 0.19 µM·h
- AUC [21]: 1.5 µM·h
- Vd [23]: 2.4 L/kg
- Vd [24]: 1 L/kg
- half-life [26]: 144 min
- half-life [28]: 42 min
- clearance [31]: 9 mL/min/kg
- clearance [32]: 57 mL/min/kg
- inhibition [33]: 7%
- IC50 [34]: > 100000 nM
- IC50 [35]: > 30000 nM
- IC50 [36]: 1.6 nM
- logD [37]: 2.4
- bioavailability [38]: 61%
- IC50 [39]: 32 nM
- IC50 [40]: 21 nM
SMILES: O=C(N[C@H]1C2CC3CC1C[C@](O)(C3)C2)c1cnc(N[C@H]2CCOC2)nc1C1CCCC1
- Activity (Mus musculus [49]): Active
- Activity (Mus musculus [50]): inactive
- Activity (Mus musculus [51]): Active
- Activity (Mus musculus [52]): Active
- Activity [53]: >90%

- logD [37]: 3.1
- F (Rattus norvegicus [54]): 161%
- IC50 [39]: 20 nM
SMILES: CC(C)(CO)Nc1ncc(C(=O)N[C@H]2C3CC4CC2C[C@](O)(C4)C3)c(OC2CCC2)n1
